Assays:
Format in all cases: cell-based
[1] = test system: Human LX-2 Hepatic Stellate Cells; experiment: Cell viability analysis, LX-2 culture; settings: end of treatment (24 hours)
Procedure: (§1) Human LX-2 Hepatic Stellate Cells (Millipore-Sigma, Cat. #SCC064) were cultured in 96-well plates. Treatments were applied in triplicate wells (applied 100 ul treatments per well) for 24 hours. Cells were near confluence at the start of treatments. […] Spent culture medium collected at the end of the treatments was assayed for procollagen and fibronectin by enzyme-linked immunosorbent assays (ELISA) (Procollagen ELISA antibody pair (ab216064) and fibronectin ELISA antibody pair (ab222262) from Abcam). Procollagen and fibronectin were not detected in medium not applied to cells. Procollagen and fibronectin levels in the medium are represented by means±SD (bars) from 3 replicate wells (open circles).

[2] = test system: human precision cut liver slices (PCLS); experiment: PCLS biomarker secretion (ELISA)
Procedure: PCLS were obtained from 5 human donors who underwent resection of liver cancer. Replicate slices were collected from healthy margins of the resections and cultured for 4 or 6 days depending on the experimental protocol. In the Nonstimulation Protocol slices were cultured for 6 days and treated for the entire period with DMSO vehicle or 5 μM CRV431. In the Stimulation Protocol slices were rested for 1 day and then administered the cytokines, TGFβ and PDGF-BB, for 3 days to stimulate inflammation and fibrosis. DMSO vehicle, CRV431 (1 and 5 μM), Alk5i (10 μM), obeticholic acid (5 μM), elafibranor (5 μM), resmetirom ([…]), and Aramchol (5 μM) were administered individually as drug treatments in the Stimulation Protocol concurrent with TGFβ+PDGF-BB. Culture medium treatments were replaced daily.
Four types of evaluations were conducted on the PCLS: (a) secretion of inflammation and fibrosis biomarkers into the culture medium, (b) histological staining and quantitation of Sirius red as a measure of tissue fibrosis, (c) gene expression of inflammation and fibrosis biomarkers by RT-PCR, and (d) RNA sequencing (RNA-Seq) of the complete transcriptome. Each of the four types of evaluation is described below: • (a) Biomarker secretion. Spent culture medium was collected daily from duplicate slices for each treatment. ELISAs were used to quantify secretion of monocyte chemoattractant protein (MCP-1), interleukin-6 (IL-6), tissue inhibitor of metalloproteinase-1 (TIMP1), hyaluronic acid, fibronectin, and collagen 1α1. For each donor the mean level of biomarker secretion in each treatment group was expressed as a percentage change relative to DMSO vehicle, the percentages averaged for all donors, and finally the mean daily percentage change calculated from all days of evaluation. […] Sirius red was quantified morphometrically in the histological sections as the percentage area with Sirius red staining in 10 sections from each treatment. In the Nonstimulation Protocol the quantity of Sirius red staining was expressed relative to the vehicle group. In the Stimulation Protocol the quantity of Sirius red staining was expressed relative to nonstimulated PCLS (0%) and TGFβ+PDGF-BB-stimulated+vehicle PCLS (100%). […] RNA was isolated from duplicate liver slices per treatment at the end of the experiments and evaluated by RT-PCR for 5 markers of inflammation and fibrosis: MCP-1, IL-6, TIMP1, αSMA, and collagen 1α1. β actin was used as a reference gene to calculate relative levels of each target gene RNA. […] RNA sequencing of the complete transcriptome (30 million reads per sample) was conducted on vehicle and 5 μM CRV431 treatment groups from 3 donors both from the Nonstimulation and Stimulation Protocols. […]

[3] = test system: Human renal mesangial cells; experiment: Cell viability analysis, renal mesangial cell culture; settings: end of 4 days of treatment
Procedure: as §1, with “renal mesangial cells (ScienCell,” for “LX-2 Hepatic Stellate Cells (Millipore-Sigma,”, “#4200 (SC))” for “#SCC064)”, “2 days, then re-applied for an additional 2 days.” for “24 hours.”, “from Day 2-4” for “at the end”, “treatment” for “the treatments”

## CC[C@@H]1NC(=O)[C@H]([C@H](O)[C@H](C)CCCCCCNC(C)=O)N(C)C(=O)[C@H](C(C)C)N(C)C(=O)[C@H](CC(C)C)N(C)C(=O)[C@H](CC(C)C)N(C)C(=O)[C@@H](C)NC(=O)[C@H](C)NC(=O)[C@H](CC(C)C)N(C)C(=O)[C@H](C(C)C)NC(=O)[C@H](CC(C)C)N(C)C(=O)[C@@H](C)N(C)C1=O [CRV431]
[1]
  cell viability: none of the CRV431 treatments affected cell viability
[2]; CRV431 applied at 5 μM, markers MCP-1, IL-6, TIMP1, hyaluronic acid, fibronectin, collagen 1α1
  mean daily secretion of all markers: decreased
[2]; ELISA
  secretion of collagen1α1, fibronectin, hyaluronic acid, IL-6, and MCP-1: reduced secretion
[3]
  cell viability: none of the CRV431 treatments affected cell viability

Reference: patent publication US12409206B2, “Use of cyclosporine analogues for treating fibrosis” (Hepion Pharmaceuticals, Inc., priority 2020, dated 2025)
